# In ChEMBL document CHEMBL1139100, “Discovery of anticonvulsant activity of abietic acid through application of linear discriminant analysis” (Bioorg Med Chem Lett, 2007):
# Calls of active or inactive are those of the source. The calls are words filed in the database; no cut-off is given here.
# Experiments:
# [1] = test system: Mus musculus; experiment: Anticonvulsant activity in Swiss mouse at 30 mg/kg, po after 4 hrs by MES test; type: functional, organism-based; parameters: dose 30 mg/kg
# [2] = test system: Mus musculus; experiment: Neurotoxicity against Swiss mouse at 100 mg/kg, po after 0.5 hrs by rotarod test; type: toxicity, organism-based; parameters: dose 100 mg/kg, route oral; settings: in vivo
# [3] = test system: Mus musculus; experiment: Neurotoxicity against Swiss mouse at 30 mg/kg, po after 4 hrs by rotarod test; type: toxicity, organism-based; parameters: dose 30 mg/kg, route oral; settings: in vivo
# [4] = test system: Mus musculus; experiment: Neurotoxicity against Swiss mouse at 30 mg/kg, po after 0.5 hrs by rotarod test; type: toxicity, organism-based; parameters: dose 30 mg/kg, route oral; settings: in vivo
# [5] = test system: Mus musculus; experiment: Anticonvulsant activity in Swiss mouse at 30 mg/kg, ip after 4 hrs by MES test; type: functional, organism-based; parameters: dose 30 mg/kg
# [6] = test system: Mus musculus; experiment: Anticonvulsant activity in Swiss mouse at 100 mg/kg, ip after 4 hrs by PTZ test; type: functional, organism-based; parameters: dose 100 mg/kg
# [7] = test system: Mus musculus; experiment: Anticonvulsant activity in Swiss mouse at 30 mg/kg, ip after 4 hrs by PTZ test; type: functional, organism-based; parameters: dose 30 mg/kg
# [8] = test system: Mus musculus; experiment: Anticonvulsant activity in Swiss mouse at 100 mg/kg, po after 0.5 hrs by MES test; type: functional, organism-based; parameters: dose 100 mg/kg
# [9] = test system: Mus musculus; experiment: Anticonvulsant activity in Swiss mouse at 30 mg/kg, po after 0.5 hrs by PTZ test; type: functional, organism-based; parameters: dose 30 mg/kg
# [10] = test system: Mus musculus; experiment: Anticonvulsant activity in Swiss mouse at 30 mg/kg, ip after 0.5 hrs by PTZ test; type: functional, organism-based; parameters: dose 30 mg/kg
# [11] = test system: Mus musculus; experiment: Anticonvulsant activity in Swiss mouse at 100 mg/kg, ip after 4 hrs by MES test; type: functional, organism-based; parameters: dose 100 mg/kg
# [12] = test system: Mus musculus; experiment: Neurotoxicity against Swiss mouse at 100 mg/kg, ip after 4 hrs by rotarod test; type: toxicity, organism-based; parameters: dose 100 mg/kg, route intraperitoneal; settings: in vivo
# [13] = test system: Mus musculus; experiment: Anticonvulsant activity in Swiss mouse at 100 mg/kg, po after 0.5 hrs by PTZ test; type: functional, organism-based; parameters: dose 100 mg/kg
# [14] = test system: Mus musculus; experiment: Anticonvulsant activity in Swiss mouse at 30 mg/kg, ip after 0.5 hrs by MES test; type: functional, organism-based; parameters: dose 30 mg/kg
# [15] = test system: Mus musculus; experiment: Anticonvulsant activity in Swiss mouse at 30 mg/kg, po after 4 hrs by PTZ test; type: functional, organism-based; parameters: dose 30 mg/kg
# [16] = test system: Mus musculus; experiment: Neurotoxicity against Swiss mouse at 30 mg/kg, ip after 0.5 hrs by rotarod test; type: toxicity, organism-based; parameters: dose 30 mg/kg, route intraperitoneal; settings: in vivo
# [17] = test system: Mus musculus; experiment: Neurotoxicity against Swiss mouse at 100 mg/kg, po after 4 hrs by rotarod test; type: toxicity, organism-based; parameters: dose 100 mg/kg, route oral; settings: in vivo
# [18] = test system: Mus musculus; experiment: Neurotoxicity against Swiss mouse at 100 mg/kg, ip after 0.5 hrs by rotarod test; type: toxicity, organism-based; parameters: dose 100 mg/kg, route intraperitoneal; settings: in vivo
# [19] = test system: Mus musculus; experiment: Anticonvulsant activity in Swiss mouse at 30 mg/kg, po after 0.5 hrs by MES test; type: functional, organism-based; parameters: dose 30 mg/kg
# [20] = test system: Mus musculus; experiment: Anticonvulsant activity in Swiss mouse at 100 mg/kg, po after 4 hrs by PTZ test; type: functional, organism-based; parameters: dose 100 mg/kg
# [21] = test system: Mus musculus; experiment: Anticonvulsant activity in Swiss mouse at 100 mg/kg, ip after 0.5 hrs by MES test; type: functional, organism-based; parameters: dose 100 mg/kg
# [22] = test system: Mus musculus; experiment: Neurotoxicity against Swiss mouse at 30 mg/kg, ip after 4 hrs by rotarod test; type: toxicity, organism-based; parameters: dose 30 mg/kg, route intraperitoneal; settings: in vivo
# [23] = test system: Mus musculus; experiment: Anticonvulsant activity in Swiss mouse at 100 mg/kg, po after 4 hrs by MES test; type: functional, organism-based; parameters: dose 100 mg/kg
# [24] = test system: Mus musculus; experiment: Anticonvulsant activity in Swiss mouse at 100 mg/kg, ip after 0.5 hrs by PTZ test; type: functional, organism-based; parameters: dose 100 mg/kg
smiles,measurement,setting,value
CC(C)C1=CC2=CC[C@@H]3[C@](C)(CCC[C@@]3(C)C(=O)O)[C@H]2CC1 [ABIETIC ACID],Activity,[1],Active
same,Activity,[2],Non-toxic
same,Activity,[3],Non-toxic
same,Activity,[4],Non-toxic
same,Activity,[5],Active
same,Activity,[6],inactive
same,Activity,[7],inactive
same,Activity,[8],inactive
same,Activity,[9],inactive
same,Activity,[10],inactive
same,Activity,[11],Active
same,Activity,[12],Non-toxic
same,Activity,[13],inactive
same,Activity,[14],inactive
same,Activity,[15],inactive
same,Activity,[16],Non-toxic
same,Activity,[17],Non-toxic
same,Activity,[18],Non-toxic
same,Activity,[19],inactive
same,Activity,[20],inactive
same,Activity,[21],inactive
same,Activity,[22],Non-toxic
same,Activity,[23],Active
same,Activity,[24],inactive
